In ChEMBL document CHEMBL3045439, “Isoforms of the heteropteran Nezara viridula ecdysone receptor: protein characterisation, RH5992 insecticide binding and homology modelling” (Pest Manag Sci, 2011):
pIC50, pKi: −log10 of the molar value.

Key:
Format in all cases: protein-complex assay
[1] = molecular target: T1, Ecdysone receptor (Drosophila melanogaster, UniProt P20153+P34021); assay: Binding affinity to Drosophila melanogaster EcR
T1 sequence (P34021 whole entry): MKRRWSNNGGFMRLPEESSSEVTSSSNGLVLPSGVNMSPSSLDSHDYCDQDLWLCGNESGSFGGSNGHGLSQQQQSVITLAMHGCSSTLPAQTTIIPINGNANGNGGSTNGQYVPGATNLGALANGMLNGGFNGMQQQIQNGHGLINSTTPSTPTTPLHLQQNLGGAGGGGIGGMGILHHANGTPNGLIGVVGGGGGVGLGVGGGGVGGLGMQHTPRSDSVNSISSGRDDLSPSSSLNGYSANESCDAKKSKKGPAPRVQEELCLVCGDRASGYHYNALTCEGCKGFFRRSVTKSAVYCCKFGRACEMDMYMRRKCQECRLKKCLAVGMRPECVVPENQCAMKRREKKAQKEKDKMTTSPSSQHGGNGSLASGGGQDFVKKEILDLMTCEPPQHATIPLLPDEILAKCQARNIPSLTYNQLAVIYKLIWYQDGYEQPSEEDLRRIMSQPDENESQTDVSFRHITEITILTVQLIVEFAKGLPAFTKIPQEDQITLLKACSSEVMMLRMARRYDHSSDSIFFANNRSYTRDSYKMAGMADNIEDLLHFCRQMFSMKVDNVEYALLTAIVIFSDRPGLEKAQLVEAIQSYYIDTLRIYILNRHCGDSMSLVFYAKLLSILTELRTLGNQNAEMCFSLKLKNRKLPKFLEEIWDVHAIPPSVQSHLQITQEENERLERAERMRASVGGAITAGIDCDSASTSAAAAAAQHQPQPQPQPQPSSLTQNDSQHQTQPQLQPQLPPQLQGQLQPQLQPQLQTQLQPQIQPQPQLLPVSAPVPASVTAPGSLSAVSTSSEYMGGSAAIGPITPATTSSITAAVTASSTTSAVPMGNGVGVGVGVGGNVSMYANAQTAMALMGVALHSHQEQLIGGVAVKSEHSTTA
T1 sequence (P20153 whole entry): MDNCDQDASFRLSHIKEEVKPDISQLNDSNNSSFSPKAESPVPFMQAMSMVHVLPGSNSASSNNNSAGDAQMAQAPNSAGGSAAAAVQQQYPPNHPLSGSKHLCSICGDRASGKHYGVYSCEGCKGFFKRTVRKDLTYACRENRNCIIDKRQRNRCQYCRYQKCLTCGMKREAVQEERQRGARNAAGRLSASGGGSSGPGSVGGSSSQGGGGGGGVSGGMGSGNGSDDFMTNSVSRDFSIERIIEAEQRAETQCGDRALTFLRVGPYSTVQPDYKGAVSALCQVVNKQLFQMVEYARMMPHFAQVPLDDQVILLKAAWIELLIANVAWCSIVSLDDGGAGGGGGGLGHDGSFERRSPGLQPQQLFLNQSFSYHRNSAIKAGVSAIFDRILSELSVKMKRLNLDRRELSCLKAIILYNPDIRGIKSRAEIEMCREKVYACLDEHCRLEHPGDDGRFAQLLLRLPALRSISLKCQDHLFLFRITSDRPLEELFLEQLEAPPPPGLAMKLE

[2] = molecular target: T2, Ecdysone receptor (Nezara viridula, UniProt E5L6Y0+E5L6Y1); assay: Binding affinity to Nezara viridula EcR
T2 sequence (E5L6Y1 whole entry): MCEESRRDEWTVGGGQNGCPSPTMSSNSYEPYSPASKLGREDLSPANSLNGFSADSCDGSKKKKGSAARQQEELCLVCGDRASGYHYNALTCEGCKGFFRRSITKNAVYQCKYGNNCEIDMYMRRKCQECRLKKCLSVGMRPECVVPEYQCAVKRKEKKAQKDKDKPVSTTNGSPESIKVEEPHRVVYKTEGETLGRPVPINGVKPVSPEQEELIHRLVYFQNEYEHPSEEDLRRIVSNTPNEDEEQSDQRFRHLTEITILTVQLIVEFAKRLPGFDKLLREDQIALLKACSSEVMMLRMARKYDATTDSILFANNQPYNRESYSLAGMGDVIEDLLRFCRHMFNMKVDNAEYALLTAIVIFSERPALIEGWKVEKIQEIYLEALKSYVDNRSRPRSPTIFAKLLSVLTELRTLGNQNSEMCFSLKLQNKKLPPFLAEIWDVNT
T2 sequence (E5L6Y0 whole entry): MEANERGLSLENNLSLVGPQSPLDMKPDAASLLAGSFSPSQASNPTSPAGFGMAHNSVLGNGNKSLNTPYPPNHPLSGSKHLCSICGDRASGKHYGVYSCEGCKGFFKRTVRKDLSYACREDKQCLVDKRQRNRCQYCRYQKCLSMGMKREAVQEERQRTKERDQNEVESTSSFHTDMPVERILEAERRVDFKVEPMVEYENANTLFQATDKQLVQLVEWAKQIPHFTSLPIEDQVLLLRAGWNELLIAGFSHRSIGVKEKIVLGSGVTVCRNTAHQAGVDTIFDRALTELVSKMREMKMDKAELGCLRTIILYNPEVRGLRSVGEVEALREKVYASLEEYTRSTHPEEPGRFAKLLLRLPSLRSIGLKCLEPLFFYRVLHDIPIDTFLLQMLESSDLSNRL

[3] = molecular target: T2, Ecdysone receptor; assay: Displacement of [3H]PonA from recombinant Nezara viridula EcR11

Row | Compound | pIC50 [1] | pIC50 [2] | pIC50 [3] | pKi [3] | pKi [1] | pKi [2]
1 | CC(C)(O)CC[C@@H](O)[C@](C)(O)[C@H]1CC[C@@]2(O)C3=CC(=O)[C@@H]4C[C@@H](O)[C@@H](O)C[C@]4(C)[C@H]3CC[C@]12C [20-HYDROXYECDYSONE] | 7.34 | 5.98 | 5.35 | 5.52 | – | –
2 | CCc1ccc(C(=O)NN(C(=O)c2cc(C)cc(C)c2)C(C)(C)C)cc1 [TEBUFENOZIDE] | – | – | 4.55 | 4.62 | 6.60 | 4.60
